Measurements taken from US20230085307A1, “PYRIDAZINONE COMPOUND AND HERBICIDE” (NISSAN CHEMICAL CORPORATION, priority 2019, published 2023).

Tested on: chickweed
Assay: Test Example 5: herbicidal effect by foliage application, plastic box (Table 20, symbol P)
Assay type: in vivo, common chickweed (Stellaria media)
Settings: foliage application, 320 g/ha, evaluated three weeks after application
How it was run: (§1)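 Sow seeds spot-wise in sterilized diluvial soil; cover with ~1.5 cm soil. Grow 14 days in greenhouse, 25° C. to 30° C. Spray foliage with emulsion diluted to predetermined amount. Rate effect after 3 weeks.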

Row | Compound | herbicidal effect on P: chickweed (criteria 0-5)
1 | CCCC(=O)Oc1c(C)nn(C)c(=O)c1-c1c(-c2ccc(Br)cc2)sc2ccc(F)cc12 [2-206] | 5 (Herbicidal rate of 90% or more (almost completely withered))
2 | CCc1ccc(-c2sc3ccc(F)cc3c2-c2c(O)c(C)nn(C)c2=O)cc1 [2-207] | 5 (Herbicidal rate of 90% or more (almost completely withered))

Tested on: barnyard grass
Assay: Test Example 4: herbicidal effect by soil treatment (Table 19, symbol H)
Assay type: in vivo, barnyard grass (Echinochloa crus-galli)
Settings: amount of applied herbicide 320 g/ha
How it was run: (§2)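 Soil-surface application: an emulsion agent diluted with water to the predetermined dose is sprayed uniformly over seeds lying under roughly 1.5 cm of sterilized diluvial soil. Boxes stay in a greenhouse at 25° C. to 30° C. Three weeks later, each species is graded on previously defined criteria.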

Row | Compound | H: barnyard grass, herbicidal effect rating
3 | CCCC(=O)Oc1c(C)nn(C)c(=O)c1-c1c(-c2ccc(Br)cc2)sc2ccc(F)cc12 [2-206] | 2 (Herbicidal rate of 20% or more and less than 40%)
4 | CCc1ccc(-c2sc3ccc(F)cc3c2-c2c(O)c(C)nn(C)c2=O)cc1 [2-207] | 2 (Herbicidal rate of 20% or more and less than 40%)

Tested on: southern crabgrass
Assay: Test Example 5: herbicidal effect by foliage application, plastic box (Table 20, symbol F)
Assay type: in vivo, southern crabgrass (Digitaria ciliaris)
Settings: foliage application, 320 g/ha, evaluated three weeks after application
How it was run: as §1

Row | Compound | herbicidal effect on F: southern crabgrass (criteria 0-5)
5 | CCCC(=O)Oc1c(C)nn(C)c(=O)c1-c1c(-c2ccc(Br)cc2)sc2ccc(F)cc12 [2-206] | 3 (Herbicidal rate of 40% or more and less than 70%)
6 | CCc1ccc(-c2sc3ccc(F)cc3c2-c2c(O)c(C)nn(C)c2=O)cc1 [2-207] | 4 (Herbicidal rate of 70% or more and less than 90%)

Tested on: Japanese bulrush
Assay: Test Example 1: herbicidal activity, application before weed generation under submerged conditions (Table 16, symbol B)
Assay type: in vivo, Japanese bulrush (Schoenoplectus juncoides)
Settings: 320 g/ha applied herbicide
How it was run: (§3)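 Submerged Wagner pots (alluvial soil, 4 cm water) sown with weed seeds and planted with 2.5-leaf rice seedlings; emulsifiable concentrate diluted in water applied to water surface on sowing day. Held in greenhouse at 25-30 °C; injury scored 0-5 by herbicidal rate after three weeks.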

Row | Compound | Herbicidal effect on B: Japanese bulrush (grade 0-5)
7 | CCCC(=O)Oc1c(C)nn(C)c(=O)c1-c1c(-c2ccc(Br)cc2)sc2ccc(F)cc12 [2-206] | 5 (Herbicidal rate of 90% or more (almost completely withered))
8 | CCc1ccc(-c2sc3ccc(F)cc3c2-c2c(O)c(C)nn(C)c2=O)cc1 [2-207] | 4 (Herbicidal rate of 70% or more and less than 90%)

Tested on: windgrass
Assay: Test Example 5: herbicidal effect by foliage application, plastic box (Table 20, symbol L)
Assay type: in vivo, windgrass (Apera spica-venti)
Settings: foliage application, 320 g/ha, evaluated three weeks after application
How it was run: as §1

Row | Compound | herbicidal effect on L: windgrass (criteria 0-5)
9 | CCCC(=O)Oc1c(C)nn(C)c(=O)c1-c1c(-c2ccc(Br)cc2)sc2ccc(F)cc12 [2-206] | 4 (Herbicidal rate of 70% or more and less than 90%)
10 | CCc1ccc(-c2sc3ccc(F)cc3c2-c2c(O)c(C)nn(C)c2=O)cc1 [2-207] | 4 (Herbicidal rate of 70% or more and less than 90%)

Tested on: Japanese bulrush
Assay: Test Example 2: herbicidal activity, application during weed generation under submerged conditions (Table 17, symbol B)
Assay type: in vivo, Japanese bulrush (Schoenoplectus juncoides)
Settings: AAH 320 g/ha; application during weed generation, submerged conditions
How it was run: (§4)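 3-wk visual-criteria score after one water-surface dose. Emulsion formulation, water-diluted to set rate; applied at 1–2 leaf stage; alluvial soil, 4 cm standing water; seeds co-sown; greenhouse 25–30° C.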

Row | Compound | herbicidal effect rating, B: Japanese bulrush
11 | CCCC(=O)Oc1c(C)nn(C)c(=O)c1-c1c(-c2ccc(Br)cc2)sc2ccc(F)cc12 [2-206] | 3 (Herbicidal rate of 40% or more and less than 70%)
12 | CCc1ccc(-c2sc3ccc(F)cc3c2-c2c(O)c(C)nn(C)c2=O)cc1 [2-207] | 3 (Herbicidal rate of 40% or more and less than 70%)

Tested on: redroot pigweed
Assay: Test Example 4: herbicidal effect by soil treatment (Table 19, symbol N)
Assay type: in vivo, redroot pigweed (Amaranthus retroflexus)
Settings: amount of applied herbicide 320 g/ha
How it was run: as §2

Row | Compound | N: redroot pigweed, herbicidal effect rating
13 | CCCC(=O)Oc1c(C)nn(C)c(=O)c1-c1c(-c2ccc(Br)cc2)sc2ccc(F)cc12 [2-206] | 5 (Herbicidal rate of 90% or more (almost completely withered))
14 | CCc1ccc(-c2sc3ccc(F)cc3c2-c2c(O)c(C)nn(C)c2=O)cc1 [2-207] | 5 (Herbicidal rate of 90% or more (almost completely withered))

Tested on: wild oat
Assay: Test Example 5: herbicidal effect by foliage application, plastic box (Table 20, symbol I)
Assay type: in vivo, wild oat (Avena fatua)
Settings: foliage application, 320 g/ha, evaluated three weeks after application
How it was run: as §1

Row | Compound | herbicidal effect on I: wild oat (criteria 0-5)
15 | CCCC(=O)Oc1c(C)nn(C)c(=O)c1-c1c(-c2ccc(Br)cc2)sc2ccc(F)cc12 [2-206] | 4 (Herbicidal rate of 70% or more and less than 90%)
16 | CCc1ccc(-c2sc3ccc(F)cc3c2-c2c(O)c(C)nn(C)c2=O)cc1 [2-207] | 3 (Herbicidal rate of 40% or more and less than 70%)

Tested on: oval-leafed pondweed
Assay: Test Example 2: herbicidal activity, application during weed generation under submerged conditions (Table 17, symbol C)
Assay type: in vivo, oval-leafed pondweed (Monochoria vaginalis)
Settings: AAH 320 g/ha; application during weed generation, submerged conditions
How it was run: as §4

Row | Compound | herbicidal effect rating, C: oval-leafed pondweed
17 | CCCC(=O)Oc1c(C)nn(C)c(=O)c1-c1c(-c2ccc(Br)cc2)sc2ccc(F)cc12 [2-206] | 4 (Herbicidal rate of 70% or more and less than 90%)
18 | CCc1ccc(-c2sc3ccc(F)cc3c2-c2c(O)c(C)nn(C)c2=O)cc1 [2-207] | 1 (Herbicidal rate of 5% or more and less than 20%)

Tested on: green foxtail
Assay: Test Example 4: herbicidal effect by soil treatment (Table 19, symbol G)
Assay type: in vivo, green foxtail (Setaria viridis)
Settings: amount of applied herbicide 320 g/ha
How it was run: as §2

Row | Compound | G: green foxtail, herbicidal effect rating
19 | CCCC(=O)Oc1c(C)nn(C)c(=O)c1-c1c(-c2ccc(Br)cc2)sc2ccc(F)cc12 [2-206] | 3 (Herbicidal rate of 40% or more and less than 70%)
20 | CCc1ccc(-c2sc3ccc(F)cc3c2-c2c(O)c(C)nn(C)c2=O)cc1 [2-207] | 0 (Herbicidal rate of 5% or less (almost no effect))

Tested on: barnyard grass
Assay: Test Example 5: herbicidal effect by foliage application, plastic box (Table 20, symbol H)
Assay type: in vivo, barnyard grass (Echinochloa crus-galli)
Settings: foliage application, 320 g/ha, evaluated three weeks after application
How it was run: as §1

Row | Compound | herbicidal effect on H: barnyard grass (criteria 0-5)
21 | CCCC(=O)Oc1c(C)nn(C)c(=O)c1-c1c(-c2ccc(Br)cc2)sc2ccc(F)cc12 [2-206] | 5 (Herbicidal rate of 90% or more (almost completely withered))
22 | CCc1ccc(-c2sc3ccc(F)cc3c2-c2c(O)c(C)nn(C)c2=O)cc1 [2-207] | 4 (Herbicidal rate of 70% or more and less than 90%)

Tested on: green foxtail
Assay: Test Example 5: herbicidal effect by foliage application, plastic box (Table 20, symbol G)
Assay type: in vivo, green foxtail (Setaria viridis)
Settings: foliage application, 320 g/ha, evaluated three weeks after application
How it was run: as §1

Row | Compound | herbicidal effect on G: green foxtail (criteria 0-5)
23 | CCCC(=O)Oc1c(C)nn(C)c(=O)c1-c1c(-c2ccc(Br)cc2)sc2ccc(F)cc12 [2-206] | 3 (Herbicidal rate of 40% or more and less than 70%)
24 | CCc1ccc(-c2sc3ccc(F)cc3c2-c2c(O)c(C)nn(C)c2=O)cc1 [2-207] | 4 (Herbicidal rate of 70% or more and less than 90%)

Tested on: chickweed
Assay: Test Example 4: herbicidal effect by soil treatment (Table 19, symbol P)
Assay type: in vivo, common chickweed (Stellaria media)
Settings: amount of applied herbicide 320 g/ha
How it was run: as §2

Row | Compound | P: chickweed, herbicidal effect rating
25 | CCCC(=O)Oc1c(C)nn(C)c(=O)c1-c1c(-c2ccc(Br)cc2)sc2ccc(F)cc12 [2-206] | 4 (Herbicidal rate of 70% or more and less than 90%)
26 | CCc1ccc(-c2sc3ccc(F)cc3c2-c2c(O)c(C)nn(C)c2=O)cc1 [2-207] | 3 (Herbicidal rate of 40% or more and less than 70%)

Tested on: oval-leafed pondweed
Assay: Test Example 1: herbicidal activity, application before weed generation under submerged conditions (Table 16, symbol C)
Assay type: in vivo, oval-leafed pondweed (Monochoria vaginalis)
Settings: 320 g/ha applied herbicide
How it was run: as §3

Row | Compound | Herbicidal effect on C: oval-leafed pondweed (grade 0-5)
27 | CCCC(=O)Oc1c(C)nn(C)c(=O)c1-c1c(-c2ccc(Br)cc2)sc2ccc(F)cc12 [2-206] | 4 (Herbicidal rate of 70% or more and less than 90%)
28 | CCc1ccc(-c2sc3ccc(F)cc3c2-c2c(O)c(C)nn(C)c2=O)cc1 [2-207] | 3 (Herbicidal rate of 40% or more and less than 70%)

Tested on: wild oat
Assay: Test Example 4: herbicidal effect by soil treatment (Table 19, symbol I)
Assay type: in vivo, wild oat (Avena fatua)
Settings: amount of applied herbicide 320 g/ha
How it was run: as §2

Row | Compound | I: wild oat, herbicidal effect rating
29 | CCCC(=O)Oc1c(C)nn(C)c(=O)c1-c1c(-c2ccc(Br)cc2)sc2ccc(F)cc12 [2-206] | 0 (Herbicidal rate of 5% or less (almost no effect))
30 | CCc1ccc(-c2sc3ccc(F)cc3c2-c2c(O)c(C)nn(C)c2=O)cc1 [2-207] | 0 (Herbicidal rate of 5% or less (almost no effect))

Tested on: persian speedwell
Assay: Test Example 5: herbicidal effect by foliage application, plastic box (Table 20, symbol R)
Assay type: in vivo, Persian speedwell (Veronica persica)
Settings: foliage application, 320 g/ha, evaluated three weeks after application
How it was run: as §1

Row | Compound | herbicidal effect on R: persian speedwell (criteria 0-5)
31 | CCCC(=O)Oc1c(C)nn(C)c(=O)c1-c1c(-c2ccc(Br)cc2)sc2ccc(F)cc12 [2-206] | 5 (Herbicidal rate of 90% or more (almost completely withered))
32 | CCc1ccc(-c2sc3ccc(F)cc3c2-c2c(O)c(C)nn(C)c2=O)cc1 [2-207] | 5 (Herbicidal rate of 90% or more (almost completely withered))
